Test results reported in patent US11419878B2, “Medicine obtained by combining FXR agonist and ARB” (Intercept Pharmaceuticals, Inc., priority 2016, dated 2022).

How the values were obtained:
[1] = system: human hepatic stellate cells (HHSC); experiment: HHSC proliferation inhibition, WST-1 cell proliferation assay; format: cell-based; details: AT-II 10^-6M + LPS 10^-5M; ARB 10^-6M, obeticholic acid 5×10^-6M; 24 hours; WST-1 absorbance
Description: The various combined effects of obeticholic acid and three types of ARBs (losartan, valsartan, and candesartan) were confirmed in an in vitro cell system experiment. Specifically, using human hepatic stellate cells (HHSC), which are implicated in the main mechanism of progression of hepatic fibrosis in NASH, the effects of administration of obeticholic acid in combination with the three ARBs of inhibiting HHSC proliferation capacity and the expression of fibrosis markers were evaluated according to the following method. Human hepatic stellate cells (HHSC) (also referred to as human hepatic star cells) Obeticholic acid (obtained from Intercept Pharmaceuticals, Inc. via Sumitomo Dainippon Pharma Co., Ltd.) was used as an FXR agonist, and commercial losartan (potassium salt of losartan; referred to in this working example simply as “losartan”) and valsartan and candesartan ([…] of candesartan; referred to in this working example simply as “candesartan”) were used as ARBs. […] The direct action of inhibiting HIISC proliferation capacity was evaluated by means of a cell proliferation assay using WST-1 reagent. […] AT-II (10^-6M) Positive control group L […]): LPS 10^-5M) Positive control group AL ([…]): (10^-6M)+LPS (10^-5M) Obeticholic acid administration (G3): AT-II (10^-6M)+LPS (10^-5M)+obeticholic acid (5×10^-6M) ARB administration (G4): AT-II (10^-6M)+LPS (10^-5M)+ARB (10^-6M) Obeticholic acid+ARB combined administration (G5): AT-II (10^-6M)+LPS (10^-5M)+obeticholic acid (5×10^-6M)+ARB (10^-6M) 3) After the cells of the above groups (G1, G2A, G2L, G2AL, G3, G4, G5) were cultured for 24 hours, respective WST-1 cell proliferation assays were conducted, and the inhibitory effect of the pharmaceutical agents on cell proliferation was evaluated. The inhibitory effect of valsartan and candesartan on HHSC proliferation was also evaluated according to steps 1)-3) above. […]

TGF-β1 = experiment: HHSC fibrosis marker gene expression, RT-PCR, TGF-β1; format: cell-based, human; details: AT-II 10^-6M + LPS 10^-5M; ARB 10^-6M, obeticholic acid 5×10^-6M; 24 hours; monotherapy vs G2AL, combination vs monotherapy groups
Description: (§1) The various combined effects of obeticholic acid and three types of ARBs (losartan, valsartan, and candesartan) were confirmed in an in vitro cell system experiment. Specifically, using human hepatic stellate cells (HHSC), which are implicated in the main mechanism of progression of hepatic fibrosis in NASH, the effects of administration of obeticholic acid in combination with the three ARBs of inhibiting HHSC proliferation capacity and the expression of fibrosis markers were evaluated according to the following method. Human hepatic stellate cells (HHSC) (also referred to as human hepatic star cells) Obeticholic acid (obtained from Intercept Pharmaceuticals, Inc. via Sumitomo Dainippon Pharma Co., Ltd.) was used as an FXR agonist, and commercial losartan (potassium salt of losartan; referred to in this working example simply as “losartan”) and valsartan and candesartan ([…] of candesartan; referred to in this working example simply as “candesartan”) were used as ARBs. Angiotensin II (AT-II) and/or lipopolysaccharide (LPS) were used (both AT1-mediated AT-II signalling and TLR4-mediated LPS signaling are known to play major roles in HSC activation and the progression of hepatic fibrosis). With respect to the effect of inhibiting fibrosis marker gene expression, collagen production capacity and TGF-β production capacity were evaluated by the RT-PCR method. 1) HHSCs were inoculated onto a 6-well plate in the amount of 300,000 cells/2 ml and allowed to proliferate in 1% FBS DMEM medium for 24 hours. 2) After 24 hours, the cells were divided into the following 7 groups and transferred to culture medium after adding the following drugs and/or reagents. Losartan was used as an ARB. Negative control group (G1): No drugs added (control) […] AT-II (10^-6M) Positive control group L […]): LPS (10^-5M) Positive control group AL ([…]): (10^-6M)+LPS (10^-5M) Obeticholic acid administration (G3): AT-II (10^-6M)+LPS (10^-5M)+obeticholic acid (5×10^-6M) ARB administration (G4): AT-II (10^-6M)+LPS (10^-5M)+ARB (10^-6M) Obeticholic acid+ARB combined administration (G5): AT-II (10^-6M)+LPS (10^-5M)+obeticholic acid (5×10^-6M)+ARB (10^-6M) […] Evaluations were conducted in the five groups G1, G2AL, G3, G4, and G5.

α1(I) procollagen = experiment: HHSC fibrosis marker gene expression, RT-PCR, α1(I) procollagen; format: cell-based, human; details: AT-II 10^-6M + LPS 10^-5M; ARB 10^-6M, obeticholic acid 5×10^-6M; 24 hours; monotherapy vs G2AL, combination vs monotherapy groups
Description: as §1

CCOc1nc2cccc(C(=O)O)c2n1Cc1ccc(-c2ccccc2-c2nn[nH]n2)cc1 [candesartan]
statistically significant inhibition: promotion of activated HHSC proliferation by AT-II and LPS, compared to positive control group AL (G2AL) [1] | TGF-β1 mRNA expression induced by AT-II and LPS in HHSC (TGF-β1) | α1(I)-procollagen mRNA expression induced by AT-II and LPS in HHSC (α1(I) procollagen)

CCCCC(=O)N(Cc1ccc(-c2ccccc2-c2nnn[nH]2)cc1)[C@H](C(=O)O)C(C)C [valsartan]
statistically significant inhibition: promotion of activated HHSC proliferation by AT-II and LPS, compared to positive control group AL (G2AL) [1] | TGF-β1 mRNA expression induced by AT-II and LPS in HHSC (TGF-β1) | α1(I)-procollagen mRNA expression induced by AT-II and LPS in HHSC (α1(I) procollagen)
